Entries after “also recorded” stand apart in the source; their conditions may differ.
Assays:
[1] = tested on: human gastric tumor SGC-7901 cells; test: Xenograft mouse model, SGC-7901 tumor growth; assay type: in vivo, BALB/c nude mice; conditions: tail vein; 100 μl containing 0.4 mg of AP-3 on days 0 and 14; nude mice; compared to controls
Method: Female BALB/c nude mice aged at 4-6 weeks-old were purchased (Tyercan, Ltd, Shenzhen) and reared in the laboratory animal facility for one week to adapt to the new environment. A total of 5×10^6 human gastric tumor SGC-7901 cells (200 μl) were inoculated into the right flank of each mouse by subcutaneous injection. When the tumor sizes reached 100-300 mm^3 (tumor volume=0.5×Length×Width^2), tumor-carrying mice in the experimental group were given (via tail vein injection) a first dose (at day zero) of 100 μl of AP3-HSA 200 mg/kg and a second dose (at day 14) of 150 mg/kg. A control group was injected with 100 μl of AP-3 containing 0.4 mg of AP-3 on days 0 and 14 in a similar fashion. 100 μl of normal saline was injected via the tail vein in a second control group on the same days. Tumor volumes were measured and mouse bodies were weighed twice a week since the first administration.

[2] = Body weights in U-937 xenograft study; assay type: in vivo; conditions: U-937 xenograft SCID mice, tail vein AP3 0.5 mg/kg days 0 and 15 (FIG. 11 legend)
Method: Female SCID mice (Tyercan, Ltd, Shenzhen) aged at 4-6 weeks-old were purchased and reared in the laboratory animal facility for one week to adapt to the new environment. A total of 5×10^6 human U-937 lymphoma tumor cells (200 μl) were inoculated into the right flank of each mouse by subcutaneous injection. […] […] 100 μl of normal saline was injected via the tail vein in a second control group on the same days. Tumor volumes were measured and mouse bodies were weighed twice a week since the first administration.

COc1cc2cc(c1Cl)N(C)C(=O)C[C@H](OC(=O)C(C)C)[C@]1(C)O[C@@H]1[C@H](C)[C@@H]1C[C@@](O)(NC(=O)O1)[C@H](OC)/C=C/C=C(\C)C2 [AP3, Ansamitocin P3]
effect on growth of SGC-7901 tumors [1]: only marginally effective | recovery of body weights after treatment [2]: returned to normal about a week after the final injections | effect on body weights ([2]; 0.5 mg/kg): decreases in body weight; also recorded: weight losses
